From ChEMBL document CHEMBL1201862, “PubChem BioAssay data set” (2004)
Activity calls are given as the source filed them.

Key:
[1] = inhibitors of PGC1a acetylation in cells, dose response, cell-based, cherry-picked samples (AID 720514); format: functional;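 also: potency may reflect raised or lowered acetylation signal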
[2] = P. falciparum Dd2 growth inhibitors, dose response, SYBR Green, cherry-picked samples (AID 1159567); format: functional, cell-based
[3] = HepG2 cell cytotoxicity, dose response, cytotoxicity control, plate reader, dry powder samples (AID 1159569); format: functional, cell-based;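 also: inhibitor potency with signal falling toward the positive control level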
[4] = P. falciparum Dd2 growth inhibitors, dose response, SYBR Green, dry powder samples (AID 1159566); format: functional, cell-based;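 also: potency for growth inhibition with lower SYBR green DNA signal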
[5] = P. falciparum 3D7-ScDHODH growth inhibitors, dose response, SYBR Green, dry powder samples (AID 1159570); format: functional, cell-based;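 also: parasite growth measured after 72 hours of compound exposure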
[6] = P. falciparum ATP4 D1247Y mutant growth inhibitors, dose response, NITD609-resistant line, SYBR Green, dry powder (AID 1159571); format: functional, cell-based;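 also: parasites synchronized at ring stage by sorbitol before testing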
[7] = HEK293 Cytotoxicity Assay Measured in Cell-Based System Using Plate Reader - 7071-01_Inhibitor_Dose_CherryPick_Activity_Set2.; format: functional
HEK293 = test: HEK293T cell cytotoxicity, dose response, cytotoxicity control, ATP luminescence, cherry-pick samples (AID 687005); format: functional, cell-based; conditions: Homo sapiens;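 also: cells exposed to compound for 48 hours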
[8] = target: DNA repair protein RAD52 homolog (Homo sapiens, UniProt P43351); format: functional, biochemical
Chain of DNA repair protein RAD52 homolog (P43351 whole entry): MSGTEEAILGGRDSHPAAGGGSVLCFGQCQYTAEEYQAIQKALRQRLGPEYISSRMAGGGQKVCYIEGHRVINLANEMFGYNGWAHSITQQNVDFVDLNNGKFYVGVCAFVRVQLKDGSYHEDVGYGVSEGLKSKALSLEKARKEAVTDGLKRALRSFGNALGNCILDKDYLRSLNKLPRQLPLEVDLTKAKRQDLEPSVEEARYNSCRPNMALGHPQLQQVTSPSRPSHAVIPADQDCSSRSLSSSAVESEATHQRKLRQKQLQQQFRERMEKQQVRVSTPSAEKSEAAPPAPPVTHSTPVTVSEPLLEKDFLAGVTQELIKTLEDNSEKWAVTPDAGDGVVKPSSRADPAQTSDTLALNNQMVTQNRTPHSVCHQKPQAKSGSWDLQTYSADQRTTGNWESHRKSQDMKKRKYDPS

[9] = ADAM10 inhibitors, peptide cleavage, dose response, biochemical, QFRET (AID 743254);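 also: ADAM10 enzyme with the DM2 quenched FRET peptide as substrate; EDANS fluorescence gain as the protease cuts the substrate; inhibitor potency against ADAM10 proteolytic activity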
[10] = target: Disintegrin and metalloproteinase domain-containing protein 17 (Homo sapiens, UniProt P78536); test: ADAM17 protease inhibitors, dose response, counter-screen for ADAM10 exosite inhibitor project, biochemical, quenched FRET substrate (AID 743253)
Chain of Disintegrin and metalloproteinase domain-containing protein 17 (P78536 whole entry, the tested form may be a part): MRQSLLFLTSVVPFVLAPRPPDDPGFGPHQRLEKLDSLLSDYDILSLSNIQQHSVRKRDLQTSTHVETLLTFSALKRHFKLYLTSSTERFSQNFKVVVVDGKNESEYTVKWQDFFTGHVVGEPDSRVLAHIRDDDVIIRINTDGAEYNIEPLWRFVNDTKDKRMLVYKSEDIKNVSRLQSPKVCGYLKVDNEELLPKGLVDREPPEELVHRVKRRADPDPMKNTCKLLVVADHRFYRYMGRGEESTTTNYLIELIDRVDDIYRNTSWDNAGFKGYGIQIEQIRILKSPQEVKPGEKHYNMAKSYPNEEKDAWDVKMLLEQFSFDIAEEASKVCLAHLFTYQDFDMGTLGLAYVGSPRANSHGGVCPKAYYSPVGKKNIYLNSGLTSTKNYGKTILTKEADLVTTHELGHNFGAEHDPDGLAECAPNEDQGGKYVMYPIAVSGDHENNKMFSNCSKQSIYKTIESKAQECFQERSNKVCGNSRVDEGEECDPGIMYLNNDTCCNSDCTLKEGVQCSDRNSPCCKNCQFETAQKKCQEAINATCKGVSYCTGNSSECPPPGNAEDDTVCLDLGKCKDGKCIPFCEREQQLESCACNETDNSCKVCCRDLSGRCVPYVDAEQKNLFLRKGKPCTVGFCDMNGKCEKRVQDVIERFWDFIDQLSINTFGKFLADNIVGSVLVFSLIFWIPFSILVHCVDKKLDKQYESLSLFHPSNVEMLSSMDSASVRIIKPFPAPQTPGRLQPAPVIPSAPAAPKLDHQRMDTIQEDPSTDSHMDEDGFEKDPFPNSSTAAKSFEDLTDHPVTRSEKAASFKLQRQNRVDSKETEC

[11] = cytotoxicity toward NIH3T3 fibroblasts, dose response, counter-screen, cell-based, ATP luminescence, mouse fibroblasts (AID 2010); format: functional;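 also: cells exposed to compound for about 90 hours before reading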
[12] = target: T1, DNA repair and recombination protein RAD54-like (Homo sapiens, UniProt Q92698); test: inhibitors of human RAD54 branch migration, confirmation, biochemical, fluorescence, cherry-picked samples, dose series (AID 651657); format: functional
T1 sequence (Q92698 whole entry): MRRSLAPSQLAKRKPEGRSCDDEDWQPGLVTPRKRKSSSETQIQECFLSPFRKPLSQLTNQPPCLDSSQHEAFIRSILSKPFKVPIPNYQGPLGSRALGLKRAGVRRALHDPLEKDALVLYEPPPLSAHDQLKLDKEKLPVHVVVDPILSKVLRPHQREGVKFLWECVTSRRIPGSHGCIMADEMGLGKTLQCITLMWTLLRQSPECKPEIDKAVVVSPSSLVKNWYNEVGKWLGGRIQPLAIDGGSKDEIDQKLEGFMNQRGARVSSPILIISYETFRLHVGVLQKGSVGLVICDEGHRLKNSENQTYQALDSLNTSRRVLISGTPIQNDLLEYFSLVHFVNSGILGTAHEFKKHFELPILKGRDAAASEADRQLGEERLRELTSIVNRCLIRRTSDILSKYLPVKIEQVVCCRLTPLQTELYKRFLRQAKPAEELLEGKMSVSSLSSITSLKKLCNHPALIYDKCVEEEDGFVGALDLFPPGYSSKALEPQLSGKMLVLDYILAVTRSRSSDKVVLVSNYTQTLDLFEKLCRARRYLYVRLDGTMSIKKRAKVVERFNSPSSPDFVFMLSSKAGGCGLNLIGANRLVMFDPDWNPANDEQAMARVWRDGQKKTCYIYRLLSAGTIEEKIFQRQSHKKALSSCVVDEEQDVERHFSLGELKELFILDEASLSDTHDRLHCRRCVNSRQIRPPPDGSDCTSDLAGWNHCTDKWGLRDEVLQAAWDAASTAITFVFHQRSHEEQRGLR

[13] = target: T2, Short transient receptor potential channel 4 (Mus musculus, UniProt Q9QUQ5); test: mouse TRPC4 channel inhibitors, dose response, cell-based, HEK293 TRPC4/mu-opioid, Fluo-4 calcium (AID 434942); format: functional;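 also: potency of inhibitors blocking the TRPC4 calcium response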
T2 sequence (Q9QUQ5 whole entry): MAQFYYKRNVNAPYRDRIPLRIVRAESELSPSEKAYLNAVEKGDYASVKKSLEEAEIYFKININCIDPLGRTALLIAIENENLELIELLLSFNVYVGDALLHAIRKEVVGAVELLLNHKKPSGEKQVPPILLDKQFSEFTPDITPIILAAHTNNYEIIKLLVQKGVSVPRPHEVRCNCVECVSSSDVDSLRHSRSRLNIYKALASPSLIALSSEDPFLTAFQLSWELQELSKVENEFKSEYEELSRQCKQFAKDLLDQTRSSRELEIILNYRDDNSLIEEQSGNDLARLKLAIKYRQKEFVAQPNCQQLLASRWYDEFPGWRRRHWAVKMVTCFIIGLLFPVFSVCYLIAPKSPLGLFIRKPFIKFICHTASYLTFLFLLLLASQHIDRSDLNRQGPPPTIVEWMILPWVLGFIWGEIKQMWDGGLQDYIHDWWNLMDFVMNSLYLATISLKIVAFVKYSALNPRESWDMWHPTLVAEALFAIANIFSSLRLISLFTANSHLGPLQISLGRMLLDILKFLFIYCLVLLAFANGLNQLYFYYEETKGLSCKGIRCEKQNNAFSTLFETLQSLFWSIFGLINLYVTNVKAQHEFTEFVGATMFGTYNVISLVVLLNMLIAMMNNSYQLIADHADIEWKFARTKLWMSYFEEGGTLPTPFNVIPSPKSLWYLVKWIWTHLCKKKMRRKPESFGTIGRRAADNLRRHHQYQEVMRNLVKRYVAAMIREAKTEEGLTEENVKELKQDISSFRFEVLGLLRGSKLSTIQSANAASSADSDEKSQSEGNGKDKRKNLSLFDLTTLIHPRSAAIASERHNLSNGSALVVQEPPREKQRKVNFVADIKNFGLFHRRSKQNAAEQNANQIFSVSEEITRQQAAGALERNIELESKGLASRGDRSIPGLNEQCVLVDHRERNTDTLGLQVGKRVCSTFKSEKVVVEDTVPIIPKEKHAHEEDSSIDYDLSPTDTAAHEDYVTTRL

[14] = inhibitors of intracellular T. cruzi replication, confirmation, NIH3T3 host cells, beta-gal luminescence (AID 2044); format: functional, cell-based;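 also: intracellular parasites grown in NIH/3T3 mouse fibroblasts as host cells; luminescent beta-galactosidase reporter signal from transgenic T. cruzi replicating inside host cells; inhibitors lower the luminescence signal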
Albumin = Albumin (Bos taurus, UniProt P02769); test: Counterscreen for inhibitors of T-cell receptor (TCR)-CD3 interaction: Fluorescence-based biochemical high throughput dose response assay to identify inhibitors of T-cell receptor (TCR)-CD3 interaction using a TAMRA-labeled BSA probe.; format: functional
Chain of Albumin (P02769 whole entry): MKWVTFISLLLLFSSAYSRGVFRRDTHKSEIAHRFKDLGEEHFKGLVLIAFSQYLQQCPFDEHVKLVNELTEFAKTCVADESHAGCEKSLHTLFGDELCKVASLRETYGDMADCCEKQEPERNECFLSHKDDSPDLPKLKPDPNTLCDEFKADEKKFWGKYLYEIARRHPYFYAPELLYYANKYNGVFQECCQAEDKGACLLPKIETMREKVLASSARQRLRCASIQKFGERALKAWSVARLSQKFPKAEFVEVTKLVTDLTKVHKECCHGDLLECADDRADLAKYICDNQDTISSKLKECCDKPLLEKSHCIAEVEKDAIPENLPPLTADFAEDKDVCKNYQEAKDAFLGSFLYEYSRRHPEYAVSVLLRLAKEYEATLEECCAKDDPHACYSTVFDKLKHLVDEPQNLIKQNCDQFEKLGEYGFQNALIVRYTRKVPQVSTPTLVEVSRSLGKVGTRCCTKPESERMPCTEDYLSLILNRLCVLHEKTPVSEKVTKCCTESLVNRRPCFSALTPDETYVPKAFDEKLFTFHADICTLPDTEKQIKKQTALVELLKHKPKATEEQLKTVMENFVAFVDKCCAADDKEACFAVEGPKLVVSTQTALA

[15] = HEK293T cytotoxicity, dose response, cytotoxicity control for miR-122 modulator project, cell-based, inhibitor set, cherry-pick, set 2 (AID 720697); format: functional
[16] = miR-122 activators in hepatoma reporter cells, dose response, cell-based, Huh7 psiCHECK-miR122, Renilla luciferase, cherry-picked (AID 651956); format: functional;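 also: huh7 hepatoma cells stably carrying a psiCHECK-2 miR-122 sensor plasmid; renilla luciferase signal reporting endogenous miR-122 activity after 48 h compound exposure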
[17] = HepG2 cell cytotoxicity, dose response, cytotoxicity control, cherry-picked samples (AID 1159577); format: functional, cell-based
[18] = intracellular Trypanosoma cruzi inhibitors in host cells – cell-based, plate reader, cherry-pick samples, set 3, dose response (AID 651818); format: functional;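 also: compounds incubated with infected cells for about four days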
[19] = growth suppression of PTEN-null colon cells, dose response, cell-based, HCT116 PTEN knockout (AID 1047); format: functional;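 also: HCT116 colon tumor cells with PTEN knocked out; cells exposed to compound for 60 hours before readout; potency for loss of cell viability measured by luminescence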
Cytochrome P450 2C9 = Cytochrome P450 2C9 (Homo sapiens, UniProt P11712)
Chain of Cytochrome P450 2C9 (P11712 whole entry): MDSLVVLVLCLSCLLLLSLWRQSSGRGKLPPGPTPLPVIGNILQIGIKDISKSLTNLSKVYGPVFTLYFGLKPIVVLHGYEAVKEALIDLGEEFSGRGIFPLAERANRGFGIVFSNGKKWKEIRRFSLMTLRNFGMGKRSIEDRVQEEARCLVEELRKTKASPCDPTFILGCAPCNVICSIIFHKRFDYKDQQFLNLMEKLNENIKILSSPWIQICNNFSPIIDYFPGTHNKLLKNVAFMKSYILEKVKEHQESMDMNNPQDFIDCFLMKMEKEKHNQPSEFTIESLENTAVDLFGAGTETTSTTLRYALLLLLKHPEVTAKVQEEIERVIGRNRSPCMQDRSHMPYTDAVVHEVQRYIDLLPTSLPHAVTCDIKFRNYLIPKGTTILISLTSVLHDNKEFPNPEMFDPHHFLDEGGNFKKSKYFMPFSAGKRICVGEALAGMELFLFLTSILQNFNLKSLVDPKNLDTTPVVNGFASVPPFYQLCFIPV

[20] = Luminescence Cell-Based Dose Retest to Confirm Inhibitors of Cancer Stem Cells. [Related pubchem assays (depositor defined):AID2717, AID2721]; format: functional; conditions: Homo sapiens
[21] = growth suppression of beta-catenin-knockout colon cells, dose response, cell-based, HCT116, human colon tumor (AID 1045); format: functional;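 also: HCT116 colon tumor cells with beta catenin knocked out; cells exposed to compound for 60 hours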
[22] = HepG2 cell cytotoxicity, dose response, cytotoxicity control, plate reader, cherry-pick, antagonist series (AID 743416); format: functional, cell-based
[23] = A549 cell cytotoxicity, dose response, cytotoxicity control, plate reader, cherry-pick, antagonist series (AID 743412); format: functional, cell-based
[24] = MC4R antagonists, dose response, counter-screen for LGR2 antagonist project, cell-based, plate reader, cherry pick (AID 743444); format: functional;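 also: transfected HEK 293 cells stimulated with alpha-MSH peptide; potency of inhibitors of the alpha-MSH evoked signal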
[25] = LGR2 antagonists, dose response, cell-based, HEK293, CRE-luciferase reporter, cherry pick, set 2 (AID 743343); format: functional;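 also: transfected cells were stimulated with diluted bursicon conditioned medium after compound addition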
[26] = HEK293 cell cytotoxicity, dose response, cytotoxicity control, plate reader, cherry-picked samples (AID 743446); format: functional, cell-based
[27] = HEK293 cell cytotoxicity, dose response, cytotoxicity control, cherry-picks, set 5 (AID 1053117); format: functional, cell-based
[28] = cytotoxicity in HeLa cells, dose response, cytotoxicity control, cell-based, 24 h, dry powder, set 2 (AID 651774); format: functional
[29] = cytotoxicity in OVCAR8 ovarian cancer cells, dose response, PAX8 project, cell-based, plate reader, dry powder samples (AID 743197); format: functional; conditions: OVCAR-8
[30] = A2780 ovarian cancer cell cytotoxicity, dose response, cytotoxicity control, plate reader, dry powder samples (AID 743046); format: functional, cell-based
[31] = IGROV1 ovarian cancer cell cytotoxicity, dose response, PAX8 inhibitor project, plate reader, dry powder samples (AID 743043); format: functional, cell-based; conditions: IGROV-1
Paired box protein Pax-8 = Paired box protein Pax-8 (Homo sapiens, UniProt Q06710); test: inhibitors of PAX8-driven TPO luciferase reporter, dose response, RMG-I cells, cherry-pick (AID 687027); format: functional, cell-based;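 also: luciferase reporter driven by Pax8 target thyroperoxidase promoter measured by SteadyGlo luminescence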
Chain of Paired box protein Pax-8 (Q06710 whole entry): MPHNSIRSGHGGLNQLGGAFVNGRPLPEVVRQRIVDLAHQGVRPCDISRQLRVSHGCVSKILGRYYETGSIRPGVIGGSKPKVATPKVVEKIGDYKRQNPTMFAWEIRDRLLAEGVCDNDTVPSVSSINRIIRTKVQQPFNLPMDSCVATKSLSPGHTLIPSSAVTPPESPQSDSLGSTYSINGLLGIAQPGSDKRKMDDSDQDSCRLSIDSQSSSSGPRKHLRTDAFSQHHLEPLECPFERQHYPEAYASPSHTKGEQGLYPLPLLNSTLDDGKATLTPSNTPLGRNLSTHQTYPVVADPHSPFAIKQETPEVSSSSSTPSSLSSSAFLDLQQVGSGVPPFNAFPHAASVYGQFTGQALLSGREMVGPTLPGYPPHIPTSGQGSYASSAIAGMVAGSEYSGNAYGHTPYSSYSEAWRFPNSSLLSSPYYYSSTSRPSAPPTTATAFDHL

[32] = NIH:OVCAR-3 ovarian cancer cell cytotoxicity, dose response, PAX8 inhibitor project, plate reader, dry powder samples (AID 743044); format: functional, cell-based

CCN(CC(=O)Nc1ccccc1C(F)(F)F)C(=O)CCSc1ccc(F)cc1
AC50 [1]: 27 µM (active)

N#C[C@@H]1[C@@H](c2ccc(C3=CCCCC3)cc2)[C@H](CO)N1C(=O)NC1CCCC1
AC50 [2]: 2.28 µM (active)
AC50 [3]: 35.6 µM (active)
AC50 [4]: 1.46 µM (active)
AC50 [5]: 3.06 µM (active)
AC50 [6]: 2.61 µM (active)

O=C(C[C@@H]1CC[C@@H]2[C@H](COC[C@H](O)CN2S(=O)(=O)c2ccc(Oc3ccccc3)cc2)O1)NC1CCC1
AC50 [7]: > 52 µM (inactive)
AC50 (HEK293): > 52 µM (inactive)

CCN1CCN(Cc2ccc(C(=O)Nc3ccc(C)c(NCc4cnc(NC(=O)OC)cn4)c3)cc2C(F)(F)F)CC1
AC50 [8]: 15.1 µM (active)

FC(F)(F)c1cccc(NC(S)=NCC2COc3ccccc3O2)c1 (centres undefined)
IC50 [9]: 16.8 µM (inactive)
IC50 [10]: > 69.5 µM (inactive)

COc1ccc(Nc2nc(NCC3CCCO3)c3ccccc3n2)c(OC)c1 (centres undefined)
EC50 [11]: > 30 µM (not active)
AC50 [12]: 57.9 µM (active)
EC50 [13]: 376 nM (active)
AC50 [8]: 13.4 µM (active)
EC50 [14]: 465 nM (active)

Cc1cc(C)c(-c2cc(NC(=O)COC(=O)c3ccc(NC(=O)CC#N)cc3)n(-c3ccccc3)n2)cc1C
IC50 (Albumin): > 94.1 µM (inactive)

CCC(=O)N1[C@H](CO)[C@H](c2ccccc2)[C@H]1CN(C(C)C)S(C)(=O)=O
AC50 [15]: 525 nM (active)
AC50 [16]: 35.4 µM (active)

C[C@H](CO)N1C[C@H](C)[C@H](CN(C)Cc2ccc(C(F)(F)F)cc2)Oc2c(NC(=O)c3nc4ccccc4s3)cccc2C1=O
AC50 [2]: 2.71 µM (active)
AC50 [3]: 46.2 µM (active)
AC50 [17]: > 39 µM (inactive)
AC50 [4]: 0.823 µM (active)
AC50 [5]: 3.74 µM (active)
AC50 [18]: 940 nM (active)
AC50 [6]: 1.69 µM (active)

Cc1ccc(N2C(=O)/C(=C\NNC(=O)C3COc4ccccc4O3)c3ccccc3C2=O)cc1 (centres undefined)
IC50 (Albumin): > 94.1 µM (inactive)

C[C@H]1CN([C@@H](C)CO)C(=O)c2cc(NS(=O)(=O)c3ccc(F)cc3)ccc2O[C@@H]1CN(C)S(=O)(=O)c1ccccc1
AC50 [7]: > 52 µM (inactive)
AC50 (HEK293): > 52 µM (inactive)

CCCNC(=O)N(C)C[C@H]1Oc2cc(C#CCC(C)C)ccc2S(=O)(=O)N([C@@H](C)CO)C[C@H]1C
AC50 [1]: 26.5 µM (active)

C=C(C)COc1ccc(-c2[nH]nc(C)c2-c2ccc(OC)cc2)c(O)c1
IC50 [9]: 9.09 µM (active)
EC50 [19]: 17.7 µM (active)
IC50 [10]: > 69.6 µM (inactive)
AC50 (Cytochrome P450 2C9): 25.1 µM (inconclusive)
AC50 [20]: 3.41 µM (active)
EC50 [21]: 18 µM (active)

COc1ccc2nc(NC(=O)c3ccco3)sc2c1
AC50 [22]: > 52 µM (inactive)
AC50 [23]: > 52 µM (inactive)
AC50 [24]: 9.96 µM (active)
AC50 [25]: 6.48 µM (active)
AC50 [26]: > 52 µM (inactive)

O=S(=O)(c1ccccc1F)N1CC[C@H]2[C@H](CO)Nc3ccc(-c4cccc(F)c4)cc3[C@H]21
AC50 [27]: 46.2 µM (active)

CCn1nnnc1NCc1ccc(N2CCCC2)cc1
AC50 [28]: > 70 µM (inactive)

CCn1nnnc1NCc1cccn1C
AC50 [28]: 31.1 µM (active)

C[C@@H]1CCCCO[C@H](CN(C)C(=O)C2CCCCC2)[C@@H](C)CN([C@@H](C)CO)C(=O)c2cc(NC(=O)Nc3ccc(F)cc3)ccc2O1
AC50 [29]: 69.9 µM (active)
AC50 [30]: 48.1 µM (active)
AC50 [31]: 63.4 µM (active)
AC50 (Paired box protein Pax-8): 4.07 µM (active)
AC50 [32]: 38.4 µM (active)
